# Values joined by “and” are separate entries in the source; they are usually repeats but may differ in a detail not shown here. Equal entries are not always repeated.
# Assays:
# [1] = system: Norwalk virus (NV) replicon in HG23 cells; experiment: Antiviral effect in NV replicon-harboring cells; format: cell-based; conditions: discussion of Table 1
# HG23 cells = experiment: Cytotoxic effects on HG23 cells; format: cell-based; conditions: median toxic dose at 48 hr of treatment, 0-320 μM
# [2] = system: Norwalk virus 3C protease; conditions: unpublished data; cited from earlier work
SMILES,anti-norovirus activity (in words) [1],TD50 (HG23 cells),inhibition of Norwalk virus 3C protease (in words) [2]
"O=S1(=O)NCCN1CC1CCCN(Cc2ccccc2)C1 (stereo not shown) [Compound 12, 1-Benzyl-3-[(1,1-dioxido-1,2,5-thiadiazolidin-2-yl)methyl]piperidine]",devoid of anti-norovirus activity,–,–
"O=C(O)CCCCN1CCN(Cc2cccc(Oc3ccccc3)c2)S1(=O)=O [Compound 14d, 5-[5-(3-Phenoxybenzyl)-1,1-dioxido-1,2,5-thiadiazolidin-2-yl]pentanoic acid]",active,–,–
"O=C(O)CN1CCN(Cc2cccc(Oc3ccccc3)c2)S1(=O)=O [Compound 14a, [5-(3-Phenoxybenzyl)-1,1-dioxido-1,2,5-thiadiazolidin-2-yl]acetic acid]",active,–,–
"NC(=O)CN1CCN(Cc2cccc(Oc3ccccc3)c2)S1(=O)=O [Compound 13m, 2-[5-(3-Phenoxybenzyl)-1,1-dioxido-1,2,5-thiadiazolidin-2-yl]acetamide]",lacked activity,–,–
"O=S1(=O)N(CCN2CCOCC2)CCN1Cc1cccc(Oc2ccccc2)c1 [Compound 17a, 4-{2-[5-(3-Phenoxybenzyl)-1,1-dioxido-1,2,5-thiadiazolidin-2-yl]ethyl}morpholine]",–,51 ± 3.2 µM and 49 ± 7.7 µM,–
"O=S1(=O)NCCN1Cc1cccc(Oc2ccccc2)c1 [Compound 2a, 2-(3-Phenoxybenzyl)-1,2,5-thiadiazolidine 1,1-dioxide]",–,50 ± 9.2 µM,does not arise from the inhibition of Norwalk virus 3C protease

# From publication PMC3191538 (Bioorganic & medicinal chemistry, 2011)
